Test results published in US7638482B2, “Protein kinase C zeta as a drug target for arthritis and other inflammatory diseases” (Wyeth, priority 2003, dated 2009).
Read-outs that look alike come from different tables or passages of the source. Where a SMILES comes first, the peptide text is derived from it. The star is where a group is joined. Myristoyl = CCCCCCCCCCCCCC(=O)*

What was measured:
[1] = test system: primary bovine chondrocytes; test: Trypan blue staining of chondrocytes and lactate assays on culture media (cytotoxicity); type: cell-based
Description: Trypan blue staining of the chondrocytes and lactate assays on the culture media were performed to rule out cytotoxicity as a possible explanation for the results. […] In addition, control peptides were synthesized and tested in the same assay system to address the possibility that nonspecific effects may be causing the observed results.

[2] = test system: primary bovine chondrocytes; test: Proteoglycan degradation in primary bovine chondrocyte pellet culture (release into media / retention in cell pellet, DMMB); type: cell-based
Description: Full-thickness bovine articular cartilage slices were dissected under aseptic conditions, rinsed four times in PBS, and subjected to pronase and collagenase digestion (1 mg/ml pronase (Calbiochem, San Diego, Calif.) for 30 minutes and 1 mg/ml Collagenase P (Roche Diagnostics Corporation, Indianapolis, Ind.) overnight at 37° C. in DME without serum) to isolate chondrocytes embedded in the cartilage extracellular matrix. The digest was filtered through a 70 micron Falcon™ cell strainer (BD Biosciences, San Jose, Calif.) and washed twice in DME containing 10% FBS. Typically 2-4×10^8 cells were obtained from a calf metacarpophalangeal joint surface. Cells were plated in monolayer in six-well plates at density of 2×10^6 cells/well. For pellet culture, cells were resuspended in growth media [HL-1 media (Cambrex Corporation, East Rutherford, N.J.), penicillin+streptomycin, glutamine, 50 μg/ml ascorbate, and 10% FBS] at 1×10^6 cells/ml, and 1 ml aliquots of cells were transferred to 15 ml sterile Falcon centrifuge tubes. The cells were centrifuged at 200×g for 5 min at 4° C. and the resulting cell pellets were cultured as described previously (Xu et al. (1996) Endocrinology 137:3557-65). Cell media were collected and stored for collagen and proteoglycan assays, and cells were refed with fresh media (3 ml/well, 1 ml/tube) every 3-4 days. Pellet cultures were maintained for 3 weeks, at which time the pellets were harvested and either digested with 0.5 ml of 300 μg/ml papain at 65° C. for 3-6 hrs for dimethylmethylene blue (DMMB) dye assays or prepared for histology.
Cells were incubated with the inhibitor for 3 hrs prior to the addition of either TNF or IL-1. […] SN50M, which served as a negative control, is the same peptide with amino acid changes to abolish NF-κB-blocking activity. SN50 and SN50M are available from, e.g., Biomol Research Laboratories, Inc. (Plymouth Meeting, Pa.).
To determine whether ζPKC inhibitors can inhibit TNF-mediated proteoglycan degradation, primary bovine chondrocytes were cultured with various concentrations of TNF for 5 days with or without (1) the myristoylated ζPKC peptide pseudosubstrate [herein termed “2089”; synthesized in-house; equivalent to SEQ ID NO:6; available from, e.g., BioSource International, Inc., USA (Camarillo, Calif.)], or (2) the small molecule inhibitor Ro-31-8220 (Sigma-RBI, Natick, Mass.). The inhibitors were added 3 hrs prior to addition of TNF.
To determine whether myristoylated ζPKC peptide pseudosubstrate 2089 can inhibit cytokine-mediated proteoglycan degradation in a dose-dependent manner, primary bovine chondrocytes were cultured with either 10 ng/ml TNF or 1 ng/ml IL-1 for 4 days after addition of various concentrations of 2089. […]

ζPKC = molecular target: T1, ζPKC (Homo sapiens, UniProt Q05513); details: literature (Toullec et al. 1991); cited from earlier work
T1 sequence (Q05513 1-592): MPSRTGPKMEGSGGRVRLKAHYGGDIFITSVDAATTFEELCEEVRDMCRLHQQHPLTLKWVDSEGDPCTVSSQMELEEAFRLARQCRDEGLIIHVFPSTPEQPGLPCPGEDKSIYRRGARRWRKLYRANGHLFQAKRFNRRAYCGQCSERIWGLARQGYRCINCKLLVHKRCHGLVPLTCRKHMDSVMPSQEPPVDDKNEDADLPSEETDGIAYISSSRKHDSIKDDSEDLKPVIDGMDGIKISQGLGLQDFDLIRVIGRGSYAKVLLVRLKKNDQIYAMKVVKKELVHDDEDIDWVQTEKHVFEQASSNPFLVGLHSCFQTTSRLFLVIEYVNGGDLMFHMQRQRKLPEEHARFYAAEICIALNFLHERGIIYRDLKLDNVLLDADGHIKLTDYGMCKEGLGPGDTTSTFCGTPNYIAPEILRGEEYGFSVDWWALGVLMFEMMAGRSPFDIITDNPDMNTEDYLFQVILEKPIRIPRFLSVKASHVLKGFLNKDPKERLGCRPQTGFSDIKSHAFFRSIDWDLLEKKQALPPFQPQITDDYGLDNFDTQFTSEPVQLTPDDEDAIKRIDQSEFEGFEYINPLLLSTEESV

NF-κB = NF-κB luciferase reporter assay in immortalized human chondrocyte cell line C28/I2; type: cell-based; details: BIS 20 μM; TNFα 1 or 10 ng/ml; C28/I2 cells; inhibitor added 2 hrs before TNF; FIG. 8
Description: Activation of NF-κB was measured in an immortalized human chondrocyte cell line (C28/I2; see, e.g., Finger et al. (2003) Arthritis Rheum. 48:3395-403; Goldring (1994) J. Clin. Invest. 94:2307-16) into which a luciferase reporter gene under the control of an NF-κB response element was introduced. The cells were cultured in DMEM/Ham's F12 supplemented with 10% FBS; the cells were split into 96 wells (1×10^5 cells/well) and infected with adenovirus expressing NF-κB luciferase construct (100 MOI) 24 hrs prior to assay. The chondrocytes were incubated with inhibitors in serum-free media 2 hrs prior to the addition of TNF. […] BIS (20 μM), a pan-PKC inhibitor, was added to some cultures, and CC (8 μM), a competitive inhibitor of the phorbol ester binding site in some forms of PKC (but not the a typical PKCs, e.g., ζPKC), was added to other cultures.

Cn1cc(C2=C(c3cn(CCCSC(=N)N)c4ccccc34)C(=O)NC2=O)c2ccccc21 [Ro-31-8220]
cytotoxicity (trypan blue staining, lactate assays) ([1]; at the doses used in the proteoglycan degradation experiments): do not cause appreciable cytotoxicity | TNF-mediated proteoglycan degradation ([2]; 5 μM Ro-31-8220, 5 days, FIG. 3): relatively ineffective | TNF-mediated proteoglycan degradation ([2]; 10 μM Ro-31-8220, TNF 10 and 100 ng/ml, 5 days, FIG. 3): significantly inhibited | proteoglycan degradation in the absence of TNF ([2]; no TNF, 5 days, FIG. 3): inhibited proteoglycan degradation

CCCCCCCCCCCCCC(=O)N[C@@H](CO)C(=O)N[C@H](C(=O)N[C@@H](Cc1ccc(O)cc1)C(=O)N[C@@H](CCCNC(=N)N)C(=O)N[C@@H](CCCNC(=N)N)C(=O)NCC(=O)N[C@@H](C)C(=O)N[C@@H](CCCNC(=N)N)C(=O)N[C@@H](CCCNC(=N)N)C(=O)N[C@@H](Cc1c[nH]c2ccccc12)C(=O)N[C@@H](CCCNC(=N)N)C(=O)N[C@@H](CCCCN)C(=O)N[C@@H](CC(C)C)C(=O)O)[C@@H](C)CC [compound 2089] (Myristoyl-SIYRRGARRWRKL-OH)
cytotoxicity (trypan blue staining, lactate assays) [1]: do not cause appreciable cytotoxicity

bisindolylmaleimide
inhibition of PKC isoforms including ζPKC (ζPKC): block the activity of all isoforms of PKC | TNFα-mediated activation of NF-κB (relative luciferase activity) (NF-κB): blocked | TNFα-mediated release of proteoglycan into the media ([2]; BIS at 20-40 μM, TNFα 100 ng/ml, FIG. 7): blocked
